Experimental data: ChEMBL document CHEMBL1128777, “Inhibition of metalloproteinase by futoenone derivatives” (Bioorg Med Chem Lett, 1995)
pIC50: −log10 of the molar value.

Legend:
[1] = target: T1, Interstitial collagenase (Homo sapiens) (UniProt P03956); assay: Inhibition of human recombinant interstitial collagenase MMP-1 at 10 uM
T1 sequence (whole entry): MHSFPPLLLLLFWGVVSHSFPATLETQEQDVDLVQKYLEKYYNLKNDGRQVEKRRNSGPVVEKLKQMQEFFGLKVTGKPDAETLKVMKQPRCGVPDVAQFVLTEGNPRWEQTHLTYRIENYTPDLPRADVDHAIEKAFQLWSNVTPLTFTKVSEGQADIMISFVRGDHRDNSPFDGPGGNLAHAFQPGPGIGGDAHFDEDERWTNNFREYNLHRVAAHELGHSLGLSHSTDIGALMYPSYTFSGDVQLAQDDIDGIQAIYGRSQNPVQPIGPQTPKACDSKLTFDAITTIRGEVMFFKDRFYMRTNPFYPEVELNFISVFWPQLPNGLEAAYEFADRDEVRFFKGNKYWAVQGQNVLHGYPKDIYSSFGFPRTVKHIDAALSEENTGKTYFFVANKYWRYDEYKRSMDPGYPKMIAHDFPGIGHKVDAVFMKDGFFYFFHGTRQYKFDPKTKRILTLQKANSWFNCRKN

[2] = target: Matrix metalloproteinase-9 (Homo sapiens) (UniProt P14780); assay: Inhibition of human recombinant 92 kDa gelatinase MMP-9 at 10 uM
Stromelysin-1 [3] = target: T2, Stromelysin-1 (Homo sapiens, UniProt P08254); assay: (§1) Inhibition of human recombinant matrix metalloprotease-3 (Stromelysin) at 10 uM
Target sequence in this assay (P08254 100-477 limits assumed): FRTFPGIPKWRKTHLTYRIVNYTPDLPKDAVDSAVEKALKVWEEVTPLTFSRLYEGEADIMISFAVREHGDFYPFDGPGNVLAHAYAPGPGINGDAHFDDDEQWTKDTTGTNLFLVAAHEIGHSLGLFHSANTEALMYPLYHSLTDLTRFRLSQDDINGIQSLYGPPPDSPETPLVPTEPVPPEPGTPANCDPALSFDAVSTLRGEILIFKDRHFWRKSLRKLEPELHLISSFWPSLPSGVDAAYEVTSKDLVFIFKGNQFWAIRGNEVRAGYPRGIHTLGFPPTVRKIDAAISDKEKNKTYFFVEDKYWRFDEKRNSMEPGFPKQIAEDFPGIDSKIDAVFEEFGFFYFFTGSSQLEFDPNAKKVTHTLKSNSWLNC

Stromelysin-1 [4] = target: T2, Stromelysin-1; assay: as §1; remark: listed apart in the source
Target sequence in this assay (P08254 whole entry): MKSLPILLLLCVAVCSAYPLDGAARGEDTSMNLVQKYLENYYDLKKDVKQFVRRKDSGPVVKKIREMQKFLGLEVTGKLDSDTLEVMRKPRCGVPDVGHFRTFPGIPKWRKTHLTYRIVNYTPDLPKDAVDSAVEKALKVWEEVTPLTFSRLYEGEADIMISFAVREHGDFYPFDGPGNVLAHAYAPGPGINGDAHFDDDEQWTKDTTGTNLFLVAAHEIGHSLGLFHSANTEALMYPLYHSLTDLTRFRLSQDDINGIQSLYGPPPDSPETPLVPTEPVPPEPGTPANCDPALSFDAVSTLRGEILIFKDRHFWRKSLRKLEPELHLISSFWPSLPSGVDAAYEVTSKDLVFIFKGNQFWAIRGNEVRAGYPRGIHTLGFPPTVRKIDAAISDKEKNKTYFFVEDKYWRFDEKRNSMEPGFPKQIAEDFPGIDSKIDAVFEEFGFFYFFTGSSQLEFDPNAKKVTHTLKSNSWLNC

Stromelysin-1 [5] = target: T2, Stromelysin-1; assay: Inhibition of human recombinant matrix metalloprotease-3 (Stromelysin) at 100 uM
Target sequence in this assay (P08254 whole entry): as above

Chain of Matrix metalloproteinase-9 (Homo sapiens) (P14780 whole entry): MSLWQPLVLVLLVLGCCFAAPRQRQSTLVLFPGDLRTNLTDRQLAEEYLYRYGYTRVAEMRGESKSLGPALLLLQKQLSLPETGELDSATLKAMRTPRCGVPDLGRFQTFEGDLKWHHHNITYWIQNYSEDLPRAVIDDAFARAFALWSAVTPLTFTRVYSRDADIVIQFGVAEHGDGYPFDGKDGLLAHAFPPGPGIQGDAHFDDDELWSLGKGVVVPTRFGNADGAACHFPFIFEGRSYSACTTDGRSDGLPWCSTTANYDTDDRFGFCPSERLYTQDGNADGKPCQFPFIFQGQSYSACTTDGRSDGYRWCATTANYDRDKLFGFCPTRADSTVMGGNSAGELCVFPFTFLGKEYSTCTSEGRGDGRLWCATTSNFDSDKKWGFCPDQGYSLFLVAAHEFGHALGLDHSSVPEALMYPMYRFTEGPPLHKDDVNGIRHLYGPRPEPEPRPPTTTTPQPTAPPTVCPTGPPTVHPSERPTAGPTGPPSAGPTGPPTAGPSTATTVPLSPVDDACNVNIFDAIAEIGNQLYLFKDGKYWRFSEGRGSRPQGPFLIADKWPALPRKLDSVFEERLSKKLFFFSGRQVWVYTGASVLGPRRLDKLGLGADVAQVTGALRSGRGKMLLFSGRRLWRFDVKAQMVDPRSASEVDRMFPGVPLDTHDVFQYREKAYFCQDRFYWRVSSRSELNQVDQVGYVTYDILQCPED

Row | SMILES | inhibition [1] [%] | inhibition [2] [%] | inhibition (Stromelysin-1 [3]) [%] | pIC50 (Stromelysin-1 [4]) | pIC50 (Stromelysin-1 [5])
1 | COc1cc2c(cc1O)O[C@@H](C[C@H](c1ccc3c(c1)OCO3)C(C)O)C2 (stereo not given in full) | 0 | 0 | 34 | – | –
2 | COC1=C[C@]23C[C@H](C[C@H](c4ccc5c(c4)OCO5)[C@H]2C)OC3=CC1=S | 0 | 0 | 42 | – | –
3 | COc1cc2c(cc1SC(C)=O)O[C@@H](C[C@H](c1ccc3c(c1)OCO3)C(C)OC(C)=O)C2 (stereo not given in full) | 23 | 8 | 58 | – | –
4 | COC1=C[C@]23C[C@H](C[C@H](c4ccc5c(c4)OCO5)[C@H]2C)OC3=CC1=O [FUTOENONE] | 16 | 0 | 35 | > 6.00 | –
5 | COc1cc2c(cc1S)O[C@@H](C[C@H](c1ccc3c(c1)OCO3)C(C)O)C2 (stereo not given in full) | 75 | 44 | 98 | 6.22 | –
6 | CNC(=O)[C@H](Cc1c[nH]c2ccccc12)NC(=O)[C@@H](CC(=O)NO)CC(C)C [ILOMASTAT] | 100 | 100 | 100 | – | 7.55
7 | COC1=C[C@]23C[C@H](C[C@H](c4ccc5c(c4)OCO5)[C@H]2C)OC3=C(Br)C1=O | 0 | 22 | 38 | – | –
8 | C=CCc1c(O)c(OC)cc2c1O[C@@H](C[C@H](c1ccc3c(c1)OCO3)C(C)O)C2 (stereo not given in full) | 0 | 0 | 36 | – | –
9 | COC1=C[C@]23C[C@H](C[C@H](c4cc5c(cc4Br)OCO5)[C@H]2C)OC3=C(Br)C1=O | 0 | 0 | 38 | – | –
